Experimental data published in patent US20190159450A1, “PYRIDINE-BASED COMPOUND INCLUDING ISOXAZOLINE RING AND USE THEREOF AS HERBICIDE” (MOGHU RESEARCH CENTER LTD., priority 2016, published 2019).

What was measured:
Format in all cases: in vivo
maize [1] = assay: Herbicidal activity test, pre-weeds emergence treatment (crop damage); conditions: Table 4, 200 g/ha, assessed 2 to 3 weeks after spraying, scale 0-10 (0: no effect, 10: complete death)
Protocol: (§1) A rectangular plastic pot with a surface area of 300 cm^2 was filled with sandy loam soil and mixed soil at a ratio of 1:1, and four kinds of weeds including Quamoclit pennata, Abutilon theophrasti Medicus, and Aeschynomene indica, Xanthium strumarium were sown therein. In another pot made in the same way, three kinds of crop seeds including maize, wheat, and rice were sown. The pots were watered and one day later, a medicament was sprayed thereon. The spraying was performed by using a track sprayer (R&D Sprayer, USA) equipped with Teejet 8002EVS (Spraying Systems Co., USA) nozzle, and the spray amount was controlled to be 1000 L/ha. A spray solution was prepared by dissolving the compound of each example or a control material in acetone, and then, adding the same amount of 0.1% (v/v) tween 20 aqueous solution thereto. The spray amount was 200 g/ha. The pots were placed in a greenhouse in which the temperature was maintained at 25° C. to 30° C. during the day and 15° C. to 25° C. during the night, and was regularly watered. After 2 to 3 weeks from the spraying of the compounds or the control material, the efficacy and the damages on each weed and each crop were assessed according to the scale of 0-10 (0: no effect, 10: complete death) scale and the results are shown in Table 3 below.
(§2) Pots for crops and weeds were prepared in the same manner as the test method illustrated in Table 3, and three kinds of weeds selected from Quamoclit pennata, Abutilon theophrasti Medicus, and Aeschynomene indica, Xanthium strumarium were used.

rice [2] = assay: as above; conditions: Table 4, 200 g/ha, assessed 2 to 3 weeks after spraying, scale 0-10 (0: no effect, 10: complete death)
Protocol: as §1, §2

wheat [3] = assay: as above; conditions: Table 4, 200 g/ha, assessed 2 to 3 weeks after spraying, scale 0-10 (0: no effect, 10: complete death)
Protocol: as §1, §2

[4] = test system: Abutilon theophrasti Medicus; assay: Herbicidal activity test, pre-weeds emergence treatment; conditions: Table 4, 200 g/ha, assessed 2 to 3 weeks after spraying, scale 0-10 (0: no effect, 10: complete death)
Protocol: as §1, §2

Aeschynomene indica [5] = assay: as above; conditions: Table 4, 200 g/ha, assessed 2 to 3 weeks after spraying, scale 0-10 (0: no effect, 10: complete death)
Protocol: as §1, §2

Quamoclit pennata [6] = assay: as above; conditions: Table 4, 200 g/ha, assessed 2 to 3 weeks after spraying, scale 0-10 (0: no effect, 10: complete death)
Protocol: as §1, §2

Xanthium strumarium [7] = assay: as above; conditions: Table 4, 200 g/ha, assessed 2 to 3 weeks after spraying, scale 0-10 (0: no effect, 10: complete death)
Protocol: as §1, §2

maize [8] = assay: Herbicidal activity test, post-weeds emergence treatment (crop damage); conditions: spray amount 200 g/ha for crops, assessed after 2 to 3 weeks, 0: no effect, 10: complete death, Table 6
Protocol: as §1
(§3) Pots for crops and weeds were prepared in the same manner as in Experimental Example 1, and then, when the crops and the weeds were raised up to 2 weeks roughly on a third-leaf stage, the compounds and the control material were sprayed thereon in the same manner as described above. The spray amount was 200 g/ha. After 2 to 3 weeks from the spraying of the test substance or the control substance, the efficacy and the damages on each weed and each crop were assessed according to the scale of 0-10 (0: no effect, 10: complete death) scale.
as §2, with “5,” for “3,”, “four” for “three”, “used. The spray amount was 200 g/ha for crops and 50 g/ha for weeds.” for “used.”

rice [9] = assay: as above; conditions: spray amount 200 g/ha for crops, assessed after 2 to 3 weeks, 0: no effect, 10: complete death, Table 6
Protocol: as §1, §3
as §2, with “5,” for “3,”, “four” for “three”, “used. The spray amount was 200 g/ha for crops and 50 g/ha for weeds.” for “used.”

wheat [10] = assay: as above; conditions: spray amount 200 g/ha for crops, assessed after 2 to 3 weeks, 0: no effect, 10: complete death, Table 6
Protocol: as §1, §3
as §2, with “5,” for “3,”, “four” for “three”, “used. The spray amount was 200 g/ha for crops and 50 g/ha for weeds.” for “used.”

[11] = test system: Abutilon theophrasti Medicus; assay: Herbicidal activity test, post-weeds emergence treatment; conditions: spray amount 50 g/ha for weeds, assessed after 2 to 3 weeks, 0: no effect, 10: complete death, Table 6
Protocol: as §1, §3
as §2, with “5,” for “3,”, “four” for “three”, “used. The spray amount was 200 g/ha for crops and 50 g/ha for weeds.” for “used.”

Aeschynomene indica [12] = assay: as above; conditions: spray amount 50 g/ha for weeds, assessed after 2 to 3 weeks, 0: no effect, 10: complete death, Table 6
Protocol: as §1, §3
as §2, with “5,” for “3,”, “four” for “three”, “used. The spray amount was 200 g/ha for crops and 50 g/ha for weeds.” for “used.”

Quamoclit pennata [13] = assay: as above; conditions: spray amount 50 g/ha for weeds, assessed after 2 to 3 weeks, 0: no effect, 10: complete death, Table 6
Protocol: as §1, §3
as §2, with “5,” for “3,”, “four” for “three”, “used. The spray amount was 200 g/ha for crops and 50 g/ha for weeds.” for “used.”

Xanthium strumarium [14] = assay: as above; conditions: spray amount 50 g/ha for weeds, assessed after 2 to 3 weeks, 0: no effect, 10: complete death, Table 6
Protocol: as §1, §3
as §2, with “5,” for “3,”, “four” for “three”, “used. The spray amount was 200 g/ha for crops and 50 g/ha for weeds.” for “used.”

SMILES | PRE ZEAMX (maize), damage score (maize [1]) | PRE ORYSA (rice), damage score (rice [2]) | PRE TRZAW (wheat), damage score (wheat [3]) | PRE ABUTH (Abutilon theophrasti Medicus), efficacy score [4] | PRE AESIN (Aeschynomene indica), efficacy score (Aeschynomene indica [5]) | PRE IPOAN (Quamoclit pennata), efficacy score (Quamoclit pennata [6]) | PRE XANST (Xanthium strumarium), efficacy score (Xanthium strumarium [7]) | ZEAMX (maize) damage, scale of 0-10 (maize [8]) | ORYSA (rice) damage, scale of 0-10 (rice [9]) | TRZAW (wheat) damage, scale of 0-10 (wheat [10]) | ABUTH (Abutilon theophrasti Medicus) herbicidal efficacy, scale of 0-10 [11] | AESIN (Aeschynomene indica) herbicidal efficacy, scale of 0-10 (Aeschynomene indica [12]) | IPOAN (Quamoclit pennata) herbicidal efficacy, scale of 0-10 (Quamoclit pennata [13]) | XANST (Xanthium strumarium) herbicidal efficacy, scale of 0-10 (Xanthium strumarium [14])
COC(=O)c1nc(C2(C)CC(Br)=NO2)cc(N)c1Cl (stereo not drawn) [Compound 53, methyl 4-amino-3-chloro-6-(3-bromo-5-methyl-4,5-dihydroisoxazol-5-yl)picolinate] | 0 | 0 | 0 | 10 | 10 | 6 | 9 | 0 | 0 | 1 | 6 | 9 | 4 | 9
CC1(c2cc(N)c(Cl)c(C(=O)O)n2)CC(Br)=NO1 (stereo not drawn) [Compound 54, 4-amino-3-chloro-6-(3-bromo-5-methyl-4,5-dihydroisoxazol-5-yl)picolinic acid] | 0 | 0 | 0 | 10 | 10 | 5 | 8 | 0 | 0 | 0 | 4 | 6 | 5 | 8
CCOC(=O)c1nc(C2CC(Br)=NO2)cc(N)c1Cl (stereo not drawn) [Compound 73, ethyl 4-amino-6-(3-bromo-4,5-dihydroisoxazol-5-yl)-3-chloropicolinate] | 0 | 0 | 0 | 10 | 10 | 6 | 9 | 0 | 0 | 1 | 6 | 9 | 4 | 9
CC(C)OC(=O)c1nc(C2CC(Br)=NO2)cc(N)c1Cl (stereo not drawn) [Compound 83, isopropyl 4-amino-6-(3-bromo-4,5-dihydroisoxazol-5-yl)-3-chloropicolinate] | 0 | 0 | 0 | 0 | 5 | 5 | 2 | 0 | 0 | 0 | 4 | 5 | 5 | 7
CC(C)COC(=O)c1nc(C2CC(Br)=NO2)cc(N)c1Cl (stereo not drawn) [Compound 84, isobutyl 4-amino-6-(3-bromo-4,5-dihydroisoxazol-5-yl)-3-chloropicolinate] | 0 | 1 | 0 | 4 | 10 | 5 | 10 | 0 | 0 | 0 | 6 | 9 | 6 | 10
Nc1cc(C2CC(Br)=NO2)nc(C(=O)Oc2ccccc2)c1Cl (stereo not drawn) [Compound 85, phenyl 4-amino-3-chloro-6-(3-bromo-4,5-dihydroisoxazol-5-yl)picolinate] | 0 | 0 | 0 | 8 | 10 | 6 | 10 | 0 | 0 | 0 | 5 | 9 | 5 | 10
Nc1cc(C2CC(Br)=NO2)nc(C(=O)OCc2ccccc2)c1Cl (stereo not drawn) [Compound 86, benzyl 4-amino-3-chloro-6-(3-bromo-4,5-dihydroisoxazol-5-yl)picolinate] | 0 | 0 | 0 | 3 | 6 | 3 | 2 | 0 | 3 | 0 | 4 | 2 | 5 | 8
Cc1ccc(COC(=O)c2nc(C3CC(Br)=NO3)cc(N)c2Cl)cc1 (stereo not drawn) [Compound 87, 4-methylbenzyl 4-amino-6-(3-bromo-4,5-dihydroisoxazol-5-yl)-3-chloropicolinate] | 0 | 0 | 0 | 6 | 9 | 7 | 5 | 1 | 0 | 0 | 6 | 9 | 4 | 10
Nc1cc(C2CC(Br)=NO2)nc(C(=O)OCc2ccc(C(F)(F)F)cc2)c1Cl (stereo not drawn) [Compound 88, 4-trifluoromethylbenzyl 4-amino-6-(3-bromo-4,5-dihydroisoxazol-5-yl)-3-chloropicolinate] | 0 | 0 | 0 | 5 | 10 | 3 | 9 | 0 | 0 | 0 | 5 | 8 | 6 | 10
